Measurements published in article PMC10343225, “Investigating the Vital Role of the Identified Abietic Acid from Helianthus annuus L. Calathide Extract against Hyperuricemia via Human Embryonic Kidney 293T Cell Model” (Molecules, 2023).

Target: T1, xanthine oxidase (XO) (Bos taurus, UniProt P80457)
T1 construct: gene XDH
Assay: spectrophotometric xanthine oxidase assay, uric acid formation at […] nm (XO from Roche)
Type: biochemical

T1 sequence (P80457 2-1332): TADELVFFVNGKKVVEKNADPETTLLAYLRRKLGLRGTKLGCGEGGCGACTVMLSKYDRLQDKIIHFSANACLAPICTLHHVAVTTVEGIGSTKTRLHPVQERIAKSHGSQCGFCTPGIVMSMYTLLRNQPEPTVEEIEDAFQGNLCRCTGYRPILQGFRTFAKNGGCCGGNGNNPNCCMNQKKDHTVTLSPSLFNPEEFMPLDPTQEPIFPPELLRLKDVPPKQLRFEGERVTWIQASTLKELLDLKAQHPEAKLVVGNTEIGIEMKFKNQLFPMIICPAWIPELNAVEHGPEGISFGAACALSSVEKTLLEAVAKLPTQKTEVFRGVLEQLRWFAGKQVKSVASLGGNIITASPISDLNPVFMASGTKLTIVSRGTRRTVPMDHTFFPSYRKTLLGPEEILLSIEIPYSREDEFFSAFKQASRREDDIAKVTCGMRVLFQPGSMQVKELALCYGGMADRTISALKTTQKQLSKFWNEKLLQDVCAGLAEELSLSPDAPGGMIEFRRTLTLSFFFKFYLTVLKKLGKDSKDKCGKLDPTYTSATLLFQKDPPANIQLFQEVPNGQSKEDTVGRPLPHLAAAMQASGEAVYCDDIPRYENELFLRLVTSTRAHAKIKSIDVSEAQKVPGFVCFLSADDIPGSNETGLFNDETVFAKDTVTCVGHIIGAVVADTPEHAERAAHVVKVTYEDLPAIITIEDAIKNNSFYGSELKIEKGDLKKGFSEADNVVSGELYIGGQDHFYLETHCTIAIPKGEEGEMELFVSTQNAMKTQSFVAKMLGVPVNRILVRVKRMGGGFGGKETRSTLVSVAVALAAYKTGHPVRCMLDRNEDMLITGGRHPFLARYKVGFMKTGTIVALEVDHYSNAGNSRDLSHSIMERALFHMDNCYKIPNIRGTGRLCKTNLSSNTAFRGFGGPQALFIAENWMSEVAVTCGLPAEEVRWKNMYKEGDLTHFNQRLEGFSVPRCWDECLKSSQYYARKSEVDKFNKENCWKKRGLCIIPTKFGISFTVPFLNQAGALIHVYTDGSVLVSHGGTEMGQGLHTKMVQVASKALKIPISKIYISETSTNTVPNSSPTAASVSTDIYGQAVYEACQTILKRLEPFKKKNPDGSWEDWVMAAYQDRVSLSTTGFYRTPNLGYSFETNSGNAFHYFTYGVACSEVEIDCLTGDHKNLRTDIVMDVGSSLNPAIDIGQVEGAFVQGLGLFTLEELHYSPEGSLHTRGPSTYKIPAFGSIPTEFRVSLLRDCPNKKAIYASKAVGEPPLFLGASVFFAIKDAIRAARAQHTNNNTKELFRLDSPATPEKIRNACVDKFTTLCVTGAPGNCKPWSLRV

IC50: 10.6 µM
SMILES: CC(C)C1=CC2=CC[C@@H]3[C@](C)(CCC[C@@]3(C)C(=O)O)[C@H]2CC1 [AA, abietic acid]
